The subject of one assay is primary neurons. Put plainly: NADPH/NADP ratio under excitotoxic conditions induced by glutamate. The note with it: 0.01 μM, FIG. 4A. The assay is classed as cell-based.
A further assay relates to Cln7Δex2 mice. Put plainly: AZ67 in vivo administration in Batten disease model. Particulars: 1 nmol/mouse intracerebroventricularly every 24 h, two months. The protocol:
AZ67 for in vivo usage was dissolved in 20% (wt/vol) PEG200 in PBS to a 20 mM concentration. 4 groups were generated (4-6 animals/group), namely: WT-vehicle, CLN7Δex2-vehicle, WT-AZ67, CLN7Δex2-AZ67. The canula was inserted intracerebroventricularly at the age of 8 weeks and, after at least of 15 days of recovery, we injected the AZ67 at the dose identified previously (l nmol/mouse) every 24 h. The duration of the experiment was determined by the presence of hindlimb clasping the CLN7Δex2-control (vehicle), being this time two months. After this, the animals were perfused, and their brains dissected to be investigated by immunofluorescence and electron microscopy (EM).
Mice (5 months for AZ67 intraventricular injections; 3 months for mCAT expression approach) were anaesthetized by intraperitoneal injection of a mixture of xylazine hydrochloride (Rompun; Bayer) and ketamine hydrochloride/chlorbutol (Imalgene; Merial) (1:4) at 1 ml per kg body weight and then perfused intra-aortically with 0.9% NaCl followed by 5 ml p/g body weight of Somogyi (4% (wt/vol) paraformaldehyde, and 0.2% (vol/vol) picric acid, in 0.1 M PB; pH 7.4). After perfusion, brains were dissected out sagitally in two parts and post-fixed with Somogyi for 2 h at room temperature. Brain blocks were rinsed successively for 10 min, 30 min and 2 h with 0.1 M PB solution and cryoprotected in 10%, 20% and 30% (wt/vol) sucrose in PB sequentially, until they sank. After cryoprotection, 40-m-thick sagittal sections were obtained with a freezing-sliding cryostat (Leica). Sectioning of WT and Cln7Δex2 brains were performed under the same conditions and sessions. The sections were collected serially in a 12-well plate in 0.1 M PB, rinsed three times for 10 min in 0.1 M PB and used for subsequent immunohistochemistry and lipofuscin observation. The section-containing wells that were not used were kept in freezer mix (30% (vol/vol) polyethylene glycol, 30% (vol/vol) glycerol in 0.1 M PB) at −20° C. […]
Sections were examined with epifluorescence and the appropriate filter sets under an Operetta CLS high-content imaging system (PerkinElmer). […] Images were analysed with the Harmony software with PhenoLOGIC (PerkinElmer). Interest brain areas (cortex, hippocampus and cerebellum) were selected and subsequently quantified as mean intensity per area by using the ‘measure rectangle’ function, which represents the mean intensity of a channel per selected area.

For assay [1], the system named is iPSC-derived neural precursor cells (NPC) from CLN7 patients. Kind of assay: Patient-derived neural precursor cells, ATP5A immunocytochemistry. The assay is classed as cell-based, human. The procedure: iPSC were generated from two CLN7 patients (Pa380 and Pa474). then characterized and differentiated to NPC as previously described39. […]
NPCs were fixed with 100% iced-cold methanol for 5 min and incubated in blocking solution (1% (v/v) normal goat serum, 0.1% (w/v) bovine serum albumin (BSA), 0.1% (v/v) Triton X-100 in DPBS). […] Slides were mounted with VECTASHIELD Mounting Medium with DAPI, incubated for 24 h at 4° C. and imaged with a Zeiss Axio Imager M2 fluorescence microscope or under an inverted microscope (Nikon; Eclipse Ti-E) equipped with a pre-centred fibre illuminator (Nikon; Intensilight C-HGFI), B/W CCD digital camera (Hamamatsu; ORCA-E.R.). Fluorescence quantification was performed. after appropriate thresholding using the ImageJ software (NIH). The pixel intensity profile of ATP5A immunodecoration was analyzed across the maximal axis of the cell that departs from the nucleus, using the plot profile plugin of ImageJ software. […]

In the case of `Cc1noc(C)c1Cn1cc(C#N)c2cc(Oc3ccc(NC(=O)[C@@H]4CCCN4)cc3)ccc21` [AZ67, (2S)-N-[4-({3-cyano-1-[(3,5-dimethyl-1,2-oxazol-4-yl)methyl]-1H-indol-5-yl}oxy)phenyl]pyrrolidine-2-carboxamide], the NADPH/NADP ratio result with primary neurons is reported as “restore NADPH/NADP ratio”. Also, in the assay on Cln7Δex2 mice, the “accumulation of SCMAS in the cortex” value is “prevented”, the “accumulation of lipofuscin in the cortex” value is “prevented”, the “accumulation of reactive astroglia in the cortex” value is “prevented” and the hindlimb paralysis result is “prevented”. Besides, the “loss of perinuclear mitochondria” value in assay [1] is recorded as “rectified the loss of perinuclear mitochondria”.

For the origin of these results see patent publication US20230047816A1 (priority 2018, published 2023).
